Patent publication US8017350B2, “Glimepiride- and insulin-induced glycosylphosphatidylinositol-specific phospholipase C regulation” (Sanofi-Aventis Deutschland GmbH, priority 2004, dated 2011)

Test system: rat liver PI-PLC
Assay: mammalian PI-PLC assay
Format: biochemical
Settings: 50 μM
Experimental: Hormone-sensitive lipase (HSL) and lipoprotein lipase (LPL) were measured using a radiolabeled triolein droplet emulsion as described in “Vertesy et al., (2002) Journal Antibiotics 55:480-494”. Pancreatic lipase (PL) was determined by incubation of 0.25 mmol tributyrin in 2 ml of 5 mM Tris/HCl (pH 6.5), 6 mM sodium taurodeoxycholate, 150 mM NaCl, 1 mM CaCl2 with porcine PL and colipase in the same buffer using a recording pH stat (stirring at 1000 rpm at 25° C.) with the pH adjusted to 6.5. PC-PLC was assayed by incubation of 0.2 ml of 10 mM dipalmitoyllecithin, 0.1 ml of 10 mM SDC and 0.1 ml of 0.03 M CaCl2 with bacterial PC-PLC (in 50 mM Tris/HCl, pH 7.5, 0.1% BSA) for 10 min at 37° C. The reaction was terminated by addition of 0.1 ml of 50% TCA and subsequently of 2.5 ml of […]. After centrifugation (1500×g, 15 min), 0.2-ml portions of the upper methanol/water phase (˜1.33 ml) were removed, supplemented with 0.5 ml of 60% HClO4, then heated at 170° C. for 1 h and finally analyzed for inorganic phosphate. Mammalian PI-PLC was measured by incubation of 0.1 ml of 10 mM PI, 0.1 ml of 0.8% sodium deoxycholate, 0.1% BSA, 0.2 ml of 100 mM sodium borate (pH 7.5) and rat liver PI-PLC for 20 min at 37° C. The reaction was terminated and further processed as described for the PC-PLC. […] Radioactive phosphatidic acid was detected by phosphorimaging. […]

## CCCCCCCCCCCCP1(=O)O[C@@H]2[C@H](O)[C@@H](O)[C@H](O)[C@@H](O)[C@@H]2O1 (stereo partly shown) [GPI-2350, myo-inositol-1,2-cyclo-dodecylphosphonic acid]
  effect on PI-PLC: not significantly affected
